Key:
CD8+ T cells from PBMC = test: IFN-γ ELISpot, PBMC-derived in vitro expanded CD8+ T cell lines; type: cell-based, human; conditions: PBMC T cell lines, responding donors/donors tested
[1] = system: islet-derived T cell lines; test: Cytokine bead array (IFN-γ, TNF-α, IL-10), combined islet-derived T cell lines from donors with T1D; conditions: IFNg, TNFa, IL-10 secretion; for islet derived T cell lines response to A2-S peptide pools or to single peptides: class I (A2) peptide pools or single peptides
Procedure: Live pancreas slices (150–200 μm thick) were provided by nPOD. […] Ten slices were digested with 1 mg/mL collagenase-P (Sigma) in PBS at 37°C with shaking with a magnetic stir bar, with tissue dispersal visually monitored. After washing, islets were enriched by hand-picking, and single-islet-derived T-cell lines generated as described[51] with modifications. Single islets were plated in wells of 96 well round bottom plates (CoStar) on irradiated (5000 rads) allogeneic PBMC with AIM-V media (Thermo Fisher Scientific) supplemented with 2 mM L-glutamine, 5 mM HEPES, and 100 U/ml penicillin and 100 μg/mL streptomycin, 0.1 mM each non-essential amino acids, 1 mM sodium pyruvate, and 5% heat-inactivated human male AB serum (Grifols Diagnostic) with 5 μg/mL each of anti-CD3, anti-CD28 (BioLegend), anti-PD-1 (ligand blocking clone EH12.1, BD Biosciences) and anti-Fas (clone SM1/23: Thermo Fisher Scientific) with 20 U/ml IL-2, and 10 ng/mL IL-15 (R&D), and 50 nM mifepristone (Thermo Fisher Scientific). The lymphocytic outgrowth from individual islets was collected, re-plated, allowed to expand with IL-2 and IL-15, and cryopreserved in early passage (P1-P3). For these experiments, 7–10 T cell lines derived from single islets from each donor were combined. Each combined T cell line contained either >60% CD4 or CD8 T cells. For some experiments in order to enriched for any reactive T cells, combined islet-derived T cell lines were stimulated with individual peptides pools with the inclusion of 5 μg/mL soluble anti-CD28 (BD Biosciences), fed with 20 U/mL recombinant IL-2 (Proleukin) and recombinant 10 ng/mL IL-15 (R&D Systems) on Day 1, allowed to rest for 4–6 days, and then re-tested for reactivity to that peptide pool.
For islet-derived combined T cellana lines, either irradiated A*02:01-Hmy.2B-LCL or DRB1*03:01-expressing QBL B-LCL (Millipore Sigma) were pulsed for 2 h with indicated pools of peptides (each peptide at 2.5 μg/mL), washed and then co-cultured at 2x10^4/cells well with combined T cell lines at 5x10^4/cell in 96-well round bottom plates (CoStar) in 5%, heat-inactivated 5% human male AB serum (Grifols Diagnostic) in AimV (ThermoFisher) supplemented with 10 mM HEPES buffer, 2 mM L-glutamine, and 100 U/100 μg/ml penicillin/streptomycin (ThermoFisher) and 2.5 μg/mL soluble anti-CD28 (BD BioSciences). On Day 1, 20 U/mL recombinant IL-2 (Proleukin) and recombinant and 10 ng/mL IL-15 (R&D Systems) was added to all conditions.

CD4+ T cells from PBMC = test: IFN-γ ELISpot, PBMC-derived in vitro expanded CD4+ T cell lines; type: cell-based, human; design: key to T cell recognition by PBMC from a T1D donor (mark E) / T cell recognition by PBMC from a T1D donor: E: T cell recognition by PBMC from a T1D donor was tested and verified; see Figure 5; conditions: for T cell recognition by PBMC from a T1D donor (mark E): MHC-II peptides, tested and verified, see Figure 5; for T1D Donor T cell response / non-T1D Donor T cell response: PBMC T cell lines, responding donors/donors tested; for Number of donors whose CD4 T cells recognized the peptide (IFN-γ ELISpot): T1D donors, PBMC-derived lines (Figure 5J); for IFN-γ ELISpot response of expanded CD4+ T cells: control donor LSLP-074, frequencies ∼10-fold lower than for T1D-004 (Figures 5E, 5F, S5B)
[2] = SEC (Secretory) A2 Peptides Set
[3] = PTM and unmodified native Pool Peptides (pool PTM 1), 9-mer peptides
[4] = SEC (Secretory) DR3 Peptides Set
[5] = PTM and unmodified native Pool Peptides (pool PTM 1), long peptides

In the case of AAAFVNQHL [compound 171], the “T1D Donor T cell response” value (CD8+ T cells from PBMC; [2]) is reported as 0/6, the “non-T1D Donor T cell response” value (CD8+ T cells from PBMC; [2]) is reported as 0/4 and the “islet derived T cell lines response to A2-S peptide pools or to single peptides” value ([1]; donor 6551 lines) is reported as “donors 6551 and 6578 lines negative”. The “islet derived T cell lines response to A2-S peptide pools or to single peptides” value ([1]; donor 6578 lines) was “donors 6551 and 6578 lines negative”.

For AVPEEEGPTVVLXPHPSLG [148–2], the “islet derived T cell lines response to DR peptide pools or to single peptides” value ([1]; donor 6579 lines, class II (DR) peptide pools or single peptides, listed as 148-2) was “donor 6579 lines positive with IFNg, TNFa and IL-10 secretion”.

In the case of EADFAIEAL [150-1], the “T1D Donor T cell response” value (CD8+ T cells from PBMC; [3]) is reported as 0/6, the “non-T1D Donor T cell response” value (CD8+ T cells from PBMC; [3]) is reported as 0/4 and the “islet derived T cell lines response to A2-S peptide pools or to single peptides” value ([1]; donor 6551 lines) is reported as “donor 6551 lines positive with IFNg, TNFa, IL10 secretion”.

In the case of FQYIIDNKGIDSDAS, the “T cell recognition by PBMC from a T1D donor (mark E)” value (“T cell recognition by PBMC” below) (CD4+ T cells from PBMC) is reported as “FQ YIIDNKGID SDAS ^ E”.

With FQYIIDNKGIDSDAS [compound 31] the “T1D Donor T cell response” value (CD4+ T cells from PBMC; DR3/DQ Set Peptides) was 1/4 and the “non-T1D Donor T cell response” value (CD4+ T cells from PBMC; DR3/DQ Set Peptides) was 0/2.

With GFPTIYFSPANKKLNPK [compound 154] the “T1D Donor T cell response” value (CD4+ T cells from PBMC; HPAP-DR3 Pool Peptides) was 0/4 and the “non-T1D Donor T cell response” value (CD4+ T cells from PBMC; HPAP-DR3 Pool Peptides) was 0/4.

In the case of GKRAIILETRQHRLF [peptide 1], the “T1D Donor T cell response” value (CD4+ T cells from PBMC; DR3/DQ Set Peptides) is reported as 0/4 and the “non-T1D Donor T cell response” value (CD4+ T cells from PBMC; DR3/DQ Set Peptides) is reported as 0/2.

GREEITYDTPFKREKS was tested, and the “T cell recognition by PBMC” value (CD4+ T cells from PBMC) was “GREE ITYDTPFKR EKS ^ E”.

For GREEITYDTPFKREKS [compound 16], the “T1D Donor T cell response” value (CD4+ T cells from PBMC; DR3/DQ Set Peptides) was 3/4, the “non-T1D Donor T cell response” value (CD4+ T cells from PBMC; DR3/DQ Set Peptides) was 0/2 and the “Number of donors whose CD4 T cells recognized the peptide (IFN-γ ELISpot)” value (“Number” for short) (CD4+ T cells from PBMC) was “three of the donors”.

“GRGGEPRAYFMSDTREE [compound 183, secretory hormone eluted peptide, pool SEC DR3]” was tested, and the “T1D Donor T cell response” value (CD4+ T cells from PBMC; [4]) was 0/4 and the “non-T1D Donor T cell response” value (CD4+ T cells from PBMC; [4]) was 0/4.

In the case of GSDDWAYDQGIRYS, the “T cell recognition by PBMC” value (CD4+ T cells from PBMC) is reported as “GSDD WAYDQGIRY S ^ E”.

For GSDDWAYDQGIRYS [compound 21], the “T1D Donor T cell response” value (CD4+ T cells from PBMC; DR3/DQ Set Peptides) was 3/4 and the “non-T1D Donor T cell response” value (CD4+ T cells from PBMC; DR3/DQ Set Peptides) was 0/2.

In the case of “GSEEYRAPRPQSEESWDEED [compound 181, secretory hormone eluted peptide, pool SEC DR3]”, the “T1D Donor T cell response” value (CD4+ T cells from PBMC; [4]) is reported as 0/4 and the “non-T1D Donor T cell response” value (CD4+ T cells from PBMC; [4]) is reported as 1/4.

With GSHLVEALYLVCGEXGF [146-2] the “T1D Donor T cell response” value (CD4+ T cells from PBMC; [5]) was 0/4 and the “non-T1D Donor T cell response” value (CD4+ T cells from PBMC; [5]) was 0/4.

GVSDQSFQVEEAKRIKQ [compound 25] was tested, and the “T1D Donor T cell response” value (CD4+ T cells from PBMC; DR3/DQ Set Peptides) was 0/4 and the “non-T1D Donor T cell response” value (CD4+ T cells from PBMC; DR3/DQ Set Peptides) was 0/2.

With “HPQGAWKELDRNY [compound 184, secretory hormone eluted peptide from SCG1, pool SEC DR3]” the “T1D Donor T cell response” value (CD4+ T cells from PBMC; [4]) was 0/4, the “non-T1D Donor T cell response” value (CD4+ T cells from PBMC; [4]) was 1/4 and the “IFN-γ ELISpot response of expanded CD4 T cells” value (CD4+ T cells from PBMC; control donor LSLP-153, line expanded with megapool HPAP-DR3 + SEC-DR3, tested with individual peptides (Figure S5C)) was “IFN-γ responses”.

For IDQINTDLNLERSHA [compound 17], the “T1D Donor T cell response” value (CD4+ T cells from PBMC; DR3/DQ Set Peptides) was 0/4 and the “non-T1D Donor T cell response” value (CD4+ T cells from PBMC; DR3/DQ Set Peptides) was 0/2.

For IDSLIELSTKLHLPADD [compound 153], the “T1D Donor T cell response” value (CD4+ T cells from PBMC; HPAP-DR3 Pool Peptides) was 0/4 and the “non-T1D Donor T cell response” value (CD4+ T cells from PBMC; HPAP-DR3 Pool Peptides) was 0/4.

With IGEETVITVDTKAAGKGK [peptide 14] the “T1D Donor T cell response” value (CD4+ T cells from PBMC; DR3/DQ Set Peptides) was 0/4 and the “non-T1D Donor T cell response” value (CD4+ T cells from PBMC; DR3/DQ Set Peptides) was 0/2.

For IPGYIVDDSVRVEQ [peptide 19], the “T1D Donor T cell response” value (CD4+ T cells from PBMC; DR3/DQ Set Peptides) was 0/4 and the “non-T1D Donor T cell response” value (CD4+ T cells from PBMC; DR3/DQ Set Peptides) was 0/2.

With ITSIVKDSSAARNGL the “T cell recognition by PBMC” value (CD4+ T cells from PBMC) was “ITS IVKDSSAAR NGL ^ E”.

For ITSIVKDSSAARNGL [peptide 18], the “T1D Donor T cell response” value (CD4+ T cells from PBMC; DR3/DQ Set Peptides) was 2/4 and the “non-T1D Donor T cell response” value (CD4+ T cells from PBMC; DR3/DQ Set Peptides) was 0/2.

With KARFAKQPAYTLVDR the “T cell recognition by PBMC” value (CD4+ T cells from PBMC) was “KAR FAKQPAYTL VDR ^ E”.

In the case of KARFAKQPAYTLVDR [compound 24], the “T1D Donor T cell response” value (CD4+ T cells from PBMC; DR3/DQ Set Peptides) is reported as 3/4, the “non-T1D Donor T cell response” value (CD4+ T cells from PBMC; DR3/DQ Set Peptides) is reported as 2/2 and the “Number” value (CD4+ T cells from PBMC) is reported as “three of the donors”. The “IFN-γ ELISpot response of expanded CD4+ T cells” value (CD4+ T cells from PBMC) was “responded”.

With KQGYQLIEGNQVLHS [compound 20] the “T1D Donor T cell response” value (CD4+ T cells from PBMC; DR3/DQ Set Peptides) was 0/4 and the “non-T1D Donor T cell response” value (CD4+ T cells from PBMC; DR3/DQ Set Peptides) was 0/2.

In the case of KRPAIWIDTGIHSRE, the “T cell recognition by PBMC” value (CD4+ T cells from PBMC) is reported as “KRPA IWIDTGIHS RE ^ E”.

KRPAIWIDTGIHSRE [peptide 10] was tested, and the “T1D Donor T cell response” value (CD4+ T cells from PBMC; DR3/DQ Set Peptides) was 4/4, the “non-T1D Donor T cell response” value (CD4+ T cells from PBMC; DR3/DQ Set Peptides) was 2/2 and the “Number” value (CD4+ T cells from PBMC) was “all four donors”. The “IFN-γ ELISpot response of expanded CD4+ T cells” value (CD4+ T cells from PBMC) was “responded”.

For KSIYFVAGL [compound 173], the “T1D Donor T cell response” value (CD8+ T cells from PBMC; [2]) was 0/6, the “non-T1D Donor T cell response” value (CD8+ T cells from PBMC; [2]) was 0/4 and the “islet derived T cell lines response to A2-S peptide pools or to single peptides” value ([1]; donor 6551 lines) was “donors 6551 and 6578 lines negative”. For the same sequence, the “islet derived T cell lines response to A2-S peptide pools or to single peptides” value ([1]; donor 6578 lines) was “donors 6551 and 6578 lines negative”.

— article PMC12624573, “The antigen presentation landscape of cytokine-stressed human pancreatic islets” (Cell reports, 2025)
